Measured values reported in PMC8807399, “Synthesis, Characterization, and in vivo Evaluation of a Novel Potent Autotaxin-Inhibitor” (Frontiers in Pharmacology, 2022).

Columns and labels:
5HT3 = target: T1, 5HT3 (Homo sapiens, UniProt P46098); assay: Off-target screen 5HT3; type: binding; conditions: 10 µM; single point, duplicates
T1 construct: purchased Eurofins CEREP SA

Alpha1A-adrenoreceptor = target: T2, Alpha1A-adrenoreceptor (Homo sapiens, UniProt P35348); assay: Off-target screen Alpha1A-adrenoreceptor; type: binding; conditions: 10 µM; single point, duplicates
T2 construct: purchased Eurofins CEREP SA
T2 sequence (P35348 whole entry): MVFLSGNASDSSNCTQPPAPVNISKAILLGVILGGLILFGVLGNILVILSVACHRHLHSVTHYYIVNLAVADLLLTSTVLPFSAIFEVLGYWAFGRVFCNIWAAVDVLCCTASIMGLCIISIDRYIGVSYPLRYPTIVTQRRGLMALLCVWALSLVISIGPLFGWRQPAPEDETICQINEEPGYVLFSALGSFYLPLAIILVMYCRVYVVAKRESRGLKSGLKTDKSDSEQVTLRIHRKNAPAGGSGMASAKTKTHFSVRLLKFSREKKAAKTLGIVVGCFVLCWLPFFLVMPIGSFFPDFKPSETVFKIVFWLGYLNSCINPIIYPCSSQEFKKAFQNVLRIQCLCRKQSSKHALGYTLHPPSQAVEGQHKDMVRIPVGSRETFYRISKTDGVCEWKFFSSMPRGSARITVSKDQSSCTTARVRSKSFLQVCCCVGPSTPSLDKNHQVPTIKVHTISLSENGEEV

Dopamine D1 receptor = target: T3, Dopamine D1 receptor (Homo sapiens, UniProt P21728); assay: Off-target screen Dopamine D1; type: binding; conditions: 10 µM; single point, duplicates
T3 construct: purchased Eurofins CEREP SA
T3 sequence (P21728 whole entry): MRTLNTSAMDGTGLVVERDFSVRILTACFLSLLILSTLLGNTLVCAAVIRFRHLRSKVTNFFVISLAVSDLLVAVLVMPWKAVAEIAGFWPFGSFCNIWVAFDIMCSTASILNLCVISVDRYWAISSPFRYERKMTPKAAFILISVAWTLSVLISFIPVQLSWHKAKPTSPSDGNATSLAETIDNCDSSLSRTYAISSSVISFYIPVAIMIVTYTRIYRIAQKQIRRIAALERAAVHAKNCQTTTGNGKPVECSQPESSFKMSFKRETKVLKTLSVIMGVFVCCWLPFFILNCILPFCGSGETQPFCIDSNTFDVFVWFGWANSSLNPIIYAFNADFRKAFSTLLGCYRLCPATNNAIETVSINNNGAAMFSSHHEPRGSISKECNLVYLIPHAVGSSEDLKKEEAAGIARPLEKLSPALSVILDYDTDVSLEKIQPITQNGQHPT

[1] = system: GABA-A (benzodiazepine site); assay: Off-target screen GABA-A (benzodiazepine site); conditions: 10 µM; single point, duplicates
MAO-B = target: T4, MAO-B (Homo sapiens, UniProt P27338); assay: Off-target screen MAO-B; type: biochemical; conditions: 10 µM; single point, duplicates
T4 construct: purchased Eurofins CEREP SA
T4 sequence (P27338 whole entry): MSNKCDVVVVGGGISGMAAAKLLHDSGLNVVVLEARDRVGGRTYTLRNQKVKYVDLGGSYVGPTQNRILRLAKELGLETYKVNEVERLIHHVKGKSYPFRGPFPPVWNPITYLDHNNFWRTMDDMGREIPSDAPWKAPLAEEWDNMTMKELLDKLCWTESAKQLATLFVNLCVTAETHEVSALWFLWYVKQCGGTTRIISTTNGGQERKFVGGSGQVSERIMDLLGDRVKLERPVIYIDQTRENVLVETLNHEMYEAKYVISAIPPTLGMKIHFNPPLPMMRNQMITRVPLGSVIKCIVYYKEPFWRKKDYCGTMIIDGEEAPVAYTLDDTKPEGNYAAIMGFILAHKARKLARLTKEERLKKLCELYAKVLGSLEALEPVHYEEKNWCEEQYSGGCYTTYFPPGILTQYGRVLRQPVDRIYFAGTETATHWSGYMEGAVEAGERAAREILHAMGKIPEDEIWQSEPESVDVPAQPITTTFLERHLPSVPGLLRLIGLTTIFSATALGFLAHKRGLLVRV

[2] = system: Nicotinic receptor (muscle); assay: Off-target screen Nicotinic receptor (muscle); conditions: 10 µM; single point, duplicates
I/R model rats = assay: Retinal ischemia/reperfusion (I/R) model; type: in vivo, rat; conditions: for ERG b-wave amplitude: I/R + ATX-i eyes vs control; for ERG a-wave amplitude: I/R + ATX-i group vs control
Procedure: Diets containing compound 13 were manufactured by ssniff Spezialdiäten GmbH (Soest, Germany). Calculations of the daily doses were based on average food intake of rats used in the studies. The regular chow diet for the 60 mg/kg dose was calculated as 8.5 kg and mixed with a solution of 13 in ethanol (4.8%, w/w). The amount of 13 used was 1.0 g per kg of food. After mixing, ethanol was removed in vacuo until dryness. For the preparation of the 20 mg/kg dose, the same procedure was used by applying 0.333 g of 13 per kg of food.
The oral treatment with the ATX-inhibitor 13 (ATX-i; 20 mg/kg; Roche) started 7 days prior to immunization and 3 days prior I/R induction and continued throughout the study. The regular chow diet for the treatment groups was replaced with the same chow diet containing the treatment substance.
An established I/R model was used ([Schmid et al., 2014]; [Renner et al., 2017]). Therefore, rats were anesthetized with a ketamine/xylazine/vetranquil cocktail (0.65/0.65/0.2 ml). One eye per animal was dilated with 5% tropicamide (Pharma Stulln, Stulln, Germany) and anesthetized topically with conjuncain (Bausch and Lomb, Berlin, Germany). Additionally, a pain medication injection of metamizole (Novalgin; Zentiva, Frankfurt am Main, Germany) was administered subcutaneously. IOP was raised to 140 mmHg for 60 min by elevating a saline reservoir connected to a needle, which was placed into the anterior chamber of the eye. Retinal ischemia was confirmed by observing whitening of the retina via an ophthalmoscope (Mini 300; Heine Optotechnik, Herrsching, Germany). Reperfusion was later reassured by observing the returning blood flow. The contralateral eye was used as a control. Analyses were performed 7 and 14 days after ischemia induction.
ERG measurements were performed on all eyes 7 and 14 days after I/R induction as previously described ([Schmid et al., 2014]; [Palmhof et al., 2018]). Before performing the ERG under dim red light, rats were dark adapted overnight. The readings were done using a full-field flash electroretinograph (HMs ERG system, OcuScience, Henderson, NV, United States). After anesthesia with a ketamine/xylazine cocktail (100/4 mg/kg) eyes were dilated and topically anesthetized. Reference electrodes were placed subcutaneously below the right and left ear and a ground electrode was placed in the base of the tail. Silver thread recording electrodes were placed in the center of the cornea. Scotopic flash ERGs were recorded at 0.1, 0.3, 1, 3, 10, and 25 cd*s/m^2 for each eye (7 days: 5-6 eyes/group; 14 days: 6-7 eyes/group). Signals obtained from the corneal surface were then amplified, digitized, and averaged using ERG View 4.380R software (OcuScience).
After explantation, eyes and optic nerves were fixed in 4% paraformaldehyde for 60 min (eyes) or 120 min (optic nerves) and then treated with 30% sucrose overnight. Afterwards, the retinas and optic nerves were embedded in NEG-50 Tissue-Tek medium (Thermo Fisher, Waltham, MA, United States). Cryo-cross sections of the eyes (10 µm) or longitudinal sections of the optic nerves (4 µm) were cut on a microtome (Thermo Fisher), mounted on Histobond Superfrost^+ slides (Thermo Fisher) and fixed in ice cold acetone for 10 min.
Retinal cross-sections from the I/R studies were stained with hematoxylin and eosin (H&E) to visualize retinal layers and changes in the thickness of the layers using standard protocols (7 days: 5-6 retinas/group; 14 days: 6-7 retinas/group). The thickness of the ganglion cell layer (GCL) was analyzed with the measuring tool of the ZEN2012 image analysis software (Zeiss, Oberkochen, Germany). Therefore, they were measured three times and the value was averaged ([Palmhof et al., 2019]).
Longitudinal optic nerve sections (EAG: 5-6 nerves/group, I/R 14 days: 6-7 nerves/group) were stained with H&E and luxol fast blue (LFB). […]

Somatostatin receptor 4 = target: T5, Somatostatin receptor 4 (Homo sapiens, UniProt P31391); assay: Off-target screen Somatostatin receptor 4; type: binding; conditions: 10 µM; single point, duplicates
T5 construct: purchased Eurofins CEREP SA
T5 sequence (P31391 whole entry): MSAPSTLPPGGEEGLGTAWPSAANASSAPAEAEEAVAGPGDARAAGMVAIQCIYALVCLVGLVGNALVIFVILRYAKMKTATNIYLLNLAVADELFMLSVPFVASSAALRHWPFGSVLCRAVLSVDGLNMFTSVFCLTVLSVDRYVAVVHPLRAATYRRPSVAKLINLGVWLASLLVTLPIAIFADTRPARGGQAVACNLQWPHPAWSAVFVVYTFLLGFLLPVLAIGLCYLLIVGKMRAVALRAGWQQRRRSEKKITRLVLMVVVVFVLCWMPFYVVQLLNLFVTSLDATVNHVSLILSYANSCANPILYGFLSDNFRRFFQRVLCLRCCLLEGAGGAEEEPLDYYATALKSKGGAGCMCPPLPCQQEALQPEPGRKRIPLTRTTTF

Beta1-adrenoreceptor = target: T6, Beta1-adrenoreceptor (Homo sapiens, UniProt P08588); assay: Off-target screen Beta1-adrenoreceptor; type: binding; conditions: 10 µM; single point, duplicates
T6 construct: purchased Eurofins CEREP SA
T6 sequence (P08588 whole entry): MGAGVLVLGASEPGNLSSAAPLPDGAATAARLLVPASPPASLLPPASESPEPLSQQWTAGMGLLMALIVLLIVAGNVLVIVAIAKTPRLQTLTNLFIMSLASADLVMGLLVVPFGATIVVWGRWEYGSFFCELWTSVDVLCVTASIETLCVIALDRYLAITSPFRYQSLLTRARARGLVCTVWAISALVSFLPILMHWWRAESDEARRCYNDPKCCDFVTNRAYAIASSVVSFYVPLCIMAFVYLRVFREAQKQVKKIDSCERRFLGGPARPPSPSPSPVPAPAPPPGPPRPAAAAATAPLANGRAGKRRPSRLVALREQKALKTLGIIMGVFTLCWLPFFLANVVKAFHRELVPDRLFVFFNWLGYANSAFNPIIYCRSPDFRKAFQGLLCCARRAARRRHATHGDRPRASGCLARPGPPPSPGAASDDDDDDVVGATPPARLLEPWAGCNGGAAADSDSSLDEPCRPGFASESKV

LPA2 receptor = target: T7, LPA2 receptor (Homo sapiens, UniProt Q9HBW0); assay: Off-target screen LPA2 receptor, agonist mode; type: cell-based; conditions: 10 µM, single point, duplicates
T7 construct: purchased Eurofins CEREP SA
T7 sequence (Q9HBW0 whole entry): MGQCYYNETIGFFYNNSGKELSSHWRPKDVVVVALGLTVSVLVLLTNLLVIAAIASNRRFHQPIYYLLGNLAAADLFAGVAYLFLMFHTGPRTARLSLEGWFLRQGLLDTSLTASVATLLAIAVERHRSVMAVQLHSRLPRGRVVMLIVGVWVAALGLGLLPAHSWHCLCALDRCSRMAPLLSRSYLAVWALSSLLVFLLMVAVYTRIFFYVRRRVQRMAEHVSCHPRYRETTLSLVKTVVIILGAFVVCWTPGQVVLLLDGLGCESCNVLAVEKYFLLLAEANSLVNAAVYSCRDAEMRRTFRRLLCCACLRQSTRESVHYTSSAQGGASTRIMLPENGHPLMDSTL

Sigma = assay: Off-target screen Sigma; conditions: 10 µM; single point, duplicates
Carbonic anhdrase II = target: T8, Carbonic anhdrase II (Homo sapiens, UniProt P00918); assay: Off-target screen Carbonic anhydrase II; type: biochemical; conditions: 10 µM; single point, duplicates
T8 construct: purchased Eurofins CEREP SA

LPA1 receptor = target: T9, LPA1 receptor (Homo sapiens, UniProt Q92633); assay: Off-target screen LPA1 receptor; conditions: 10 µM; single point, duplicates
T9 construct: purchased Eurofins CEREP SA
T9 sequence (Q92633 whole entry): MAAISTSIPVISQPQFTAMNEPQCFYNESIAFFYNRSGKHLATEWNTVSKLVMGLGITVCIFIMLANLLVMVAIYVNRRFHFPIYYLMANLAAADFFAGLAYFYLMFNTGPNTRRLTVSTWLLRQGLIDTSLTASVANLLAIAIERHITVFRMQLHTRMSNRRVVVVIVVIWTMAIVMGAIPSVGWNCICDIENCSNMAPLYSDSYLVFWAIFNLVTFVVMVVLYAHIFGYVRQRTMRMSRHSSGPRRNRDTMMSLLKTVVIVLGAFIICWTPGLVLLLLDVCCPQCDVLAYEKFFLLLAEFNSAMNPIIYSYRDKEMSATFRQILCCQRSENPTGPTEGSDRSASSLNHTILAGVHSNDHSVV

Glucocorticoid receptor = target: T10, Glucocorticoid receptor (Homo sapiens, UniProt P04150); assay: Off-target screen Glucocorticoid receptor; type: binding; conditions: 10 µM; single point, duplicates
T10 construct: purchased Eurofins CEREP SA
T10 sequence (P04150 whole entry): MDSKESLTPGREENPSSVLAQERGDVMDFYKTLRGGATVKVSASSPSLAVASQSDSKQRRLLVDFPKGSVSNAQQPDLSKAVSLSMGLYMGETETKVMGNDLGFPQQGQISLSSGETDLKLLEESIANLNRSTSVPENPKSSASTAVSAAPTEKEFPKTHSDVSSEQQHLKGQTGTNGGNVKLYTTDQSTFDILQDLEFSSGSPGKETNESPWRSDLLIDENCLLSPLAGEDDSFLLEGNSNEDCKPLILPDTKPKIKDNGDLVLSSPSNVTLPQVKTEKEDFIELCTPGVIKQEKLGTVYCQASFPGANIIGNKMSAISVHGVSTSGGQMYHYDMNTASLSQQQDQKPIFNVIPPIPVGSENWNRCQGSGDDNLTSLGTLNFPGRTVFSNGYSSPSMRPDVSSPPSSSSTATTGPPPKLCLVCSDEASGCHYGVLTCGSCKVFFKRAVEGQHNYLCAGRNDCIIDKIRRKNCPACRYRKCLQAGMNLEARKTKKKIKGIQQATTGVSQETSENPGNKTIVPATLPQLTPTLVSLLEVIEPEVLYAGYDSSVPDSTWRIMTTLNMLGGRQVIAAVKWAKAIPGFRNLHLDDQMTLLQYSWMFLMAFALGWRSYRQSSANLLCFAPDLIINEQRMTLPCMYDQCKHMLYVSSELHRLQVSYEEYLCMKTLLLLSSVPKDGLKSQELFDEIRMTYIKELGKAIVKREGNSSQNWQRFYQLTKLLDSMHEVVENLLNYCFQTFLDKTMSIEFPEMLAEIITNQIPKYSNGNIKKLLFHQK

5HT1A = target: T11, 5HT1A (Homo sapiens, UniProt P08908); assay: Off-target screen 5HT1A; type: binding; conditions: 10 µM; single point, duplicates
T11 construct: purchased Eurofins CEREP SA

S1P1 = target: T12, S1P1 (Homo sapiens, UniProt P21453); assay: Off-target screen S1P1, antagonist mode; type: cell-based; conditions: 10 µM, single point, duplicates
T12 construct: purchased Eurofins CEREP SA
T12 sequence (P21453 whole entry): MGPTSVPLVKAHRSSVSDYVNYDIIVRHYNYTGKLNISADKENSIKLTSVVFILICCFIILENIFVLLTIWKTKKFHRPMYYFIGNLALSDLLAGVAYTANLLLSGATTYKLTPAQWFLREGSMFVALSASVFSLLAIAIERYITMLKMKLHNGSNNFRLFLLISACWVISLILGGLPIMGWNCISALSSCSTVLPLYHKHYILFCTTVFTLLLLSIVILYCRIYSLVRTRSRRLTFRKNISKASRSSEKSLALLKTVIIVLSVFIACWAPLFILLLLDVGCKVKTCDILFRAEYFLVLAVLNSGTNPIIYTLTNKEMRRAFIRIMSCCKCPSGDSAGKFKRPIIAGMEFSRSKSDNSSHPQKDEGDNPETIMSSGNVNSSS

T1 sequence (P46098 24-478): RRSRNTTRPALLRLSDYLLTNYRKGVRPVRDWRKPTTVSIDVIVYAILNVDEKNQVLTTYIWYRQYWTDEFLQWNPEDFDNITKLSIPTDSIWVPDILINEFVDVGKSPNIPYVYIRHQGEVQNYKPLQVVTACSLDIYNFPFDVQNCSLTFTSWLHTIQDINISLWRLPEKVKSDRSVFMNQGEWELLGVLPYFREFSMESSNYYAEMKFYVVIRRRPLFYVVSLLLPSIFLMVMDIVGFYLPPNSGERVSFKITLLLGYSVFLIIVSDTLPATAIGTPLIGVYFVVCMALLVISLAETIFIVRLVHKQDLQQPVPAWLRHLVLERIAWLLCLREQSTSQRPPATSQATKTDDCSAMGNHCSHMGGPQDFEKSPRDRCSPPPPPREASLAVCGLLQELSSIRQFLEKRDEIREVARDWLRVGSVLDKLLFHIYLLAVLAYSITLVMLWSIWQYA

SMILES: O=C(OCc1ccc(OC(F)(F)F)cc1)N1C[C@@H]2CN(C(=O)c3ccc4[nH]nnc4c3)C[C@H]2C1 [Compound 13, (3aS,6aS)-5-(1H-Benzotriazole-5-carbonyl)-hexahydro-pyrrolo[3,4-c]pyrrole-2-carboxylic acid 4-trifluoromethoxy-benzyl ester]
- 5HT3 (h) [% inhib] (5HT3): -2 % inhib
- Alpha1A-adrenoreceptor (h) [% inhib] (Alpha1A-adrenoreceptor): 6 % inhib
- Dopamine D1 receptor (h) [% inhib] (Dopamine D1 receptor): 0 % inhib
- GABA-A (benzodiazepine site) (r) [% inhib] [1]: -26 % inhib
- MAO-B (h) [% inhib] (MAO-B): 6 % inhib
- Nicotinic receptor (muscle) (h) [% inhib] [2]: 3 % inhib
- ERG b-wave amplitude (I/R model rats; 7 days (p < 0.001)): significantly lower
- ERG b-wave amplitude (I/R model rats; 14 days (p < 0.001)): significantly declined
- ERG a-wave amplitude (I/R model rats; 7 days, all light intensities (p < 0.050)): significant decrease
- ERG a-wave amplitude (I/R model rats; 14 days, all light intensities (p > 0.050), vs I/R increased at 0.1 cd s/m^2 (p = 0.027)): comparable to the control ones
- GCL thickness (I/R model rats; I/R + ATX-i group, 20 mg/kg food admix, 7 days, I/R 4.03 ± 0.84, control 6.28 ± 1.57): 4.34 ± 1.63 µm
- β-III tubulin protein level (Western Blot), retina (I/R model rats; I/R + ATX-i group, 7 days, I/R 0.18 ± 0.17, control 1.39 ± 0.52): 0.28 ± 0.30
- Iba1 protein level (Western Blot), retina (I/R model rats; I/R + ATX-i group, 7 days, I/R 0.61 ± 0.05, control 0.47 ± 0.11): 0.50 ± 0.21
- GFAP+ area, retina (I/R model rats; I/R + ATX-i group, 7 days, I/R 3.44 ± 1.52, control 2.46 ± 1.41): 2.98 ± 1.13 area [%]/section
- GFAP protein level (Western Blot), retina (I/R model rats; I/R + ATX-i group, 7 days, I/R 4.00 ± 1.95, control 0.71 ± 0.33): 3.90 ± 1.14
- Cleaved caspase 3+ apoptotic RGCs (I/R model rats; I/R + ATX-i group, 7 days, I/R 5.97 ± 1.93, control 2.62 ± 1.59): 6.21 ± 1.62 cells/mm
- Brn-3a+ RGC number, retina (I/R model rats; I/R + ATX-i group, 7 days, I/R 10.95 ± 2.48, control 48.29 ± 3.94, p = 0.008 vs I/R): 17.61 ± 1.63 cells/mm
- ED1+ and Iba1+ co-labeled cells, retina (I/R model rats; I/R + ATX-i group, 7 days, I/R 34.74 ± 6.57, control 0.81 ± 0.91, p = 0.045 vs I/R): 26.91 ± 4.48 cells/mm
- Iba1+ microglia, retina (I/R model rats; I/R + ATX-i group, 7 days, I/R 38.44 ± 7.75, control 5.65 ± 2.29, p = 0.045 vs I/R): 29.04 ± 5.19 cells/mm
- β-III tubulin protein level (Western Blot), retina (I/R model rats; I/R + ATX-i group, 14 days, I/R 0.06 ± 0.03, control 0.60 ± 0.08): 0.13 ± 0.08
- Iba1 protein level (Western Blot), retina (I/R model rats; I/R + ATX-i group, 14 days, I/R 0.95 ± 0.54, control 0.28 ± 0.19): 0.69 ± 0.44
- GFAP protein level (Western Blot), retina (I/R model rats; I/R + ATX-i group, 14 days, I/R 1.60 ± 0.19, control 0.19 ± 0.06): 1.31 ± 0.66
- GCL thickness (I/R model rats; I/R + ATX-i group, 14 days, I/R 2.76 ± 0.16, control 5.28 ± 0.43, p = 0.003 vs I/R): 3.54 ± 0.34 µm
- Activated microglia (ED1+ and Iba1+), optic nerve (I/R model rats; I/R + ATX-i group, 14 days, I/R 5.28 ± 0.76, control 0.06 ± 0.06): 5.71 ± 1.04 cells/image
- Cleaved caspase 3+ cells (I/R model rats; I/R + ATX-i group, 14 days, I/R 5.38 ± 0.83, control 2.58 ± 0.72): 5.02 ± 1.52 cells/mm
- Iba1+ cells, optic nerve (I/R model rats; I/R + ATX-i group, 14 days, I/R 5.65 ± 0.75, control 2.74 ± 1.06): 6.10 ± 1.09 cells/image
- Brn-3a+ RGC number, retina (I/R model rats; I/R + ATX-i group, 14 days, I/R 5.81 ± 2.85, control 56.32 ± 11.74, p = 0.017 vs I/R): 21.62 ± 8.84 cells/mm
- GFAP+ area, retina (I/R model rats; I/R + ATX-i group, 14 days, I/R 7.02 ± 2.71, control 3.35 ± 0.98): 5.01 ± 1.70 area [%]/section
- ED1+ and Iba1+ activated microglia, retina (I/R model rats; I/R + ATX-i group, 14 days, I/R 34.20 ± 9.12, control 2.99 ± 1.26): 28.27 ± 7.63 cells/mm
- Iba1+ microglia, retina (I/R model rats; I/R + ATX-i group, 14 days, I/R 45.5 ± 11.78, control 26.28 ± 3.33): 41.17 ± 9.33 cells/mm
- GFAP score, optic nerve (I/R model rats; I/R + ATX-i group, 14 days, score 0-2, I/R 1.13 ± 0.13, control 0.89 ± 0.30): 1.23 ± 0.25
- Optic nerve LFB score (I/R model rats; I/R + ATX-i group, 14 days, score 0-2, I/R 1.19 ± 0.25, control 0.54 ± 0.42): 1.09 ± 0.17
- Optic nerve SMI-32 score (I/R model rats; I/R + ATX-i group, 14 days, score 0-2, I/R 1.27 ± 0.31, control 0.47 ± 0.27): 1.05 ± 0.21
- Optic nerve H&E score (I/R model rats; I/R + ATX-i group, 14 days, score 0-4, I/R 2.43 ± 0.37, control 0.77 ± 0.27): 2.25 ± 0.44
- Somatostatin receptor 4 (h) [% inhib] (Somatostatin receptor 4): 12 % inhib
- Beta1-adrenoreceptor (h) [% inhib] (Beta1-adrenoreceptor): 2 % inhib
- LPA2 receptor (h), agonist mode [% pos ctrl] (LPA2 receptor): 8 % pos ctrl
- Sigma (h) [% inhib] (Sigma): 38 % inhib
- Carbonic anhdrase II (h) [% inhib] (Carbonic anhdrase II): -6 % inhib
- LPA1 receptor (h) [% inhib] (LPA1 receptor): -19 % inhib
- Glucocorticoid receptor (h) [% inhib] (Glucocorticoid receptor): 6 % inhib
- 5HT1A (h) [% inhib] (5HT1A): -20 % inhib
- S1P1 (h), antago. mode [% inhib] (S1P1): 8 % inhib
